From patent publication US10154813B1, “Method and apparatus for patient skin color monitoring and drug efficacy measurement” (priority 2017, dated 2018)

Assays:
[1] = patients, by body surface area; cited from earlier work
[2] = system: microvascular endothelium (skin, right anterior thigh) of a peripheral artery disease patient; assay: Skin colorimetry (a, b, L) before and after application of “μ” in a peripheral artery disease patient on cilostazol; assay type: in vivo, human; details: 50 mg twice a day; for a dry: baseline (dry)
Text: As stated above, one available quantitative color system is the L*a*b* color space or Hunter L/a/b color space, which can be visualized as a rectangular 3D coordinate system. L indicates lightness, a is the red/green coordinate, and b is the yellow/blue coordinate. L can have a value from 0 (black) to 100 (perfect reflection). The a and b axes have no numerical limits. Coordinate a is positive when red, and negative when green. Positive b is yellow, and negative b is blue. Colors can be described numerically using numerical values for L, a, and b. Differences between two colors can be quantified for each of the individual L/a/b values (ΔL, Δa, Δb). Overall differences between two colors can be derived numerically based on the three Δ values.
μ=drug applied before colorimeter and/or spectrophotometer measurements.
L1, a1, b1=Initial measurement.
L2, a2, b2=Measurement with μ applied. L2−L1=ΔLμ(L2 minus L1)=change in lightness and darkness(+=lighter,−=darker) a2−a1=Δaμ(a2 minus a1)=change in red and green(+=redder,−=greener) b2−b1=Δbμ(b2 minus b1)=change in yellow and blue(+=yellower,−=bluer)
When the arteries in the lower extremities become blocked and stenosed with various disease manifestations such as diabetes, hypercholesterolemia there is an increased amount of claudication that occurs with the lower extremities with minimal exertion. Using the current methodology described herein the patient can ascertain if the effects of the various antiplatelet and statin medication's i.e. Lipitor, Crestor are affective in improving the blood flow to the lower extremities. By taking baseline measurements in the lower extremities in particular locations in the legs such as the anterior tibial surface of a right or left leg, medication can be then administered to the patient. After the corresponding 5 half-lives or more have past of drug “δ” the procedure above can be implemented and test run to determine the a, b, L after drug “μ” has been applied. This information can then be used by calculating the measurements with the equation as described above the change in the colorimetric and spectrophotometric variables that can be derived. This will then allow for the ability of the patient in the healthcare provider to know which drug provides the maximum increase in cardio vascular flow to the area based on the information of the homeostasis of the microvascular endothelial system. The more a percentage change of equal to or greater than 10%, the better the flow that would be understood to be an improvement of the peripheral circulation of that area. It will also allow for the proper titration of medication of that particular area. If it seems to improve the flow then, the patient and the healthcare provider may decide to increase the dosage of the medication to have a better benefit. This will allow for an objective determination of how well the patient is responding to the medication while minimizing the side effects of the drugs.
With reference to the table below and to FIG. 19, the table and the graph show a patient with known peripheral artery disease diagnosed by angiogram in the right distal common femoral artery who is having their right anterior thigh continuously evaluated at the same location for the a, b, L calculations after they were initially started on 50 mg of cilostazol twice a day from December 2016 until August 2017. The values of the of a, b, L, are calculated after “μ” was applied which is shown in color red.

[3] = system: coronary arteries; details: cited from earlier work
[4] = system: skin capillaries; assay: Topical wet run solution on skin: capillary dilation / red shift; assay type: in vivo, human; details: applied to skin surface
Text: The inventor's work has identified previously unknown differences in the reactions of healthy and unhealthy individuals to acetylcholine and other vasodilative substances when applied to the skin. […] Additional efficacious wet run solutions include bradykinin, adenosine, vasopressin, nitroglycerin, sildenafil, serotonin, and thrombin.
“Wet runs” can be performed according to the same general protocol described above for dry runs, which are incorporated herein but will not be fully repeated for brevity. The difference is that for wet runs the skin area being measured with the color detector is wetted with a chemical solution (a.k.a. “Wet run solution”). For example, a solution of one or more chemicals (e.g. acetylcholine and/or thrombin) in water, alcohol, petroleum jelly, or saline. The solution can be applied by wiping or covering the area with a wet gauze pad. The solution may be applied once at the beginning of the procedure before the color detector is positioned on the skin, or applied more than once throughout the procedure. Suspensions of effective chemicals (as opposed to solutions), viscous spreadable chemical applications, lipid-carrier compounds, and potentially non-wet applications of effective chemicals are also contemplated.
Wet runs can also be used as a partial substitute for exercise in a clinical setting, such as for patients who are not physically able to perform stress test exercises. The chemical alone provokes the same general types of differential responses as stress test exercise. For example, in a healthy at-rest individual, acetylcholine alone causes skin capillary dilation, which increases blood perfusion and (because blood is red) causes the skin to become more red. In an unhealthy individual, the acetylcholine alone will cause only low, negligible, or even negative red shift. Thus, the differential reactions to application of acetylcholine (for example) can be used to assess vascular health or the effectiveness of medication even without a stress test.

In the case of `COc1cccc2c1C(=O)c1c(O)c3c(c(O)c1C2=O)C[C@@](O)(C(=O)CO)C[C@@H]3O[C@H]1C[C@H](N)[C@H](O)[C@H](C)O1` [Adriamycin], the “cumulative dose associated with an increased risk of cardiomyopathy” value [1] is listed as “above 550 mg/m2”.

For `O=C1CCc2cc(OCCCCc3nnnn3C3CCCCC3)ccc2N1` [Cilostazol, cilostazol], the “effect on blood flow to the microvascular endothelium (a shift after μ)” value ([2]; 9 months monitoring) was “improved blood flow”, the L ([2]; April 2017) was 70.42 and the b ([2]; April 2017) was 16.14. It also gave an L ([2]; August 2017) of 65.59, a b ([2]; August 2017) of 16.8 and an L ([2]; December 2016) of 65.09. For the same molecule, the b ([2]; December 2016) was 15.65, the L ([2]; February 2017) was 71.68 and the b ([2]; February 2017) was 14.67. It also gave an L ([2]; January 2017) of 58.14, a b ([2]; January 2017) of 10.51 and an L ([2]; July 2017) of 71.63. It also gave a b ([2]; July 2017) of 14.62, an L ([2]; June 2017) of 66.06 and a b ([2]; June 2017) of 17.75. The L ([2]; March 2017) was 70.24, the b ([2]; March 2017) was 15.42 and the L ([2]; May 2017) was 69.91. The b ([2]; May 2017) was 15.64, the a dry ([2]; April 2017) was 5.14 and the a dry ([2]; August 2017) was 5.31. For the same molecule, the a dry ([2]; December 2016) was 4.58, the a dry ([2]; February 2017) was 4.70 and the a dry ([2]; January 2017) was 4.62. It also gave an a dry ([2]; July 2017) of 5.15, an a dry ([2]; June 2017) of 5.35 and an a dry ([2]; March 2017) of 5.12. For the same molecule, the a dry ([2]; May 2017) was 5.02, the “a wet after “μ”” value ([2]; April 2017) was 7.33 and the “a wet after “μ”” value ([2]; August 2017) was 10.32. The “a wet after “μ”” value ([2]; December 2016) was 5.35, the “a wet after “μ”” value ([2]; February 2017) was 7.33 and the “a wet after “μ”” value ([2]; January 2017) was 6.33. The “a wet after “μ”” value ([2]; July 2017) was 8.95, the “a wet after “μ”” value ([2]; June 2017) was 9.40 and the “a wet after “μ”” value ([2]; March 2017) was 7.62. The “a wet after “μ”” value ([2]; May 2017) was 8.06.

For `CC(=O)OCC[N+](C)(C)C` [acetylcholine], the temporary occlusion ([3]; eight arteries with advanced stenosis) is listed as “temporary occlusion in five”.

In the case of `Nc1ncnc2c1ncn2[C@@H]1O[C@H](CO)[C@@H](O)[C@H]1O` [adenosine], the “efficacy as wet run solution” value [4] is reported as “efficacious”.

In the case of `O=[N+]([O-])OCC(CO[N+](=O)[O-])O[N+](=O)[O-]` [nitroglycerin], the “efficacy as wet run solution” value [4] is listed as “efficacious” and the vessel response ([3]; all vessels (normal and diseased)) is listed as “All vessels dilated”.

With `NCCc1c[nH]c2ccc(O)cc12` [serotonin] the “efficacy as wet run solution” value [4] was “efficacious”.

With `CCCc1nn(C)c2c(=O)[nH]c(-c3cc(S(=O)(=O)N4CCN(C)CC4)ccc3OCC)nc12` [sildenafil] the “efficacy as wet run solution” value [4] was “efficacious”.

In the case of `NC(=O)CC[C@@H]1NC(=O)[C@H](Cc2ccccc2)NC(=O)[C@H](Cc2ccc(O)cc2)NC(=O)[C@@H](N)CSSC[C@@H](C(=O)N2CCC[C@H]2C(=O)N[C@@H](CCCN=C(N)N)C(=O)NCC(N)=O)NC(=O)[C@H](CC(N)=O)NC1=O` [vasopressin], the “efficacy as wet run solution” value [4] is reported as “efficacious”.

In the case of thrombin, the “efficacy as wet run solution” value [4] is reported as “efficacious”.
